In US9474744B2, “Beta-lactam compounds for treating diabetes” (STEM CELL MEDICINE LTD., priority 2011, dated 2016):

Columns and labels:
[1] = system: encephalitogenic BP10 line; assay: Adoptive EAE: BP10 T-cell line stimulated in vitro with test substance, then injected into naive rats; format: in vivo, rat
Description: Antigen-specific T-cell lines were established from lymph node cells that had been stimulated with myelin basic protein (MBP; 10 μg/ml) for 3 days in stimulation medium as described below. Following stimulation, the T-cell blasts were isolated on LYMPHOPREP™ (Nycomed Pharma, Oslo, Norway) and seeded in propagation medium. Propagation medium was identical to stimulation medium without autologous serum, but supplemented with fetal calf serum 10% and T-cell growth factors from the supernatant of Con A stimulated spleen cells 10% (Mor et al. (1990) J Clin Invest, 85, 1594-1598). Animals were injected intra-peritoneally with 107 MBP-stimulated T cells, following 6-8 cycles of in vitro stimulations. It is known that MBP-reactive lines undergo a reduction in pathogenicity after 6 or more in vitro stimulations. In some experiments the BP10 line was stimulated with phorbol myristate acetate (PMA; 50 ng/ml) and ionomycin (500 ng/ml) for 3 days in stimulation medium, without antigen-presenting cells.
Active EAE was induced by subcutaneous injection of 25 μg guinea-pig MBP (GpMBP) in complete Freund's adjuvant (CFA). […] Adoptive EAE was transferred by intra-peritoneal injection of guinea-pig MBP-activated cells of the BP10 line as described in Mor et al. (1993) J Clin Invest, 92, 2199-2206. […] Clinical scoring was: +1, paralysis of tail; +1.5, paresis of posterior paws and ataxia; +2, paraplegia; +3, paralysis extending to thoracic spine; +4, a moribund state.
Treatment with cefuroxime in vivo could affect many different host agents involved in EAE or AA as well as influencing the rats' bacterial flora. To test whether the antibiotic might directly modify the behavior of effector T cells, an encephalitogenic T-cell line was stimulated in the presence or absence of cefuroxime in vitro. The weakly encephalitogenic BP10 line was used, and was stimulated for 3 days with MBP in the presence or absence of cefuroxime (50 μg/ml). The activated T cells were then washed to remove the antibiotic, the T cells were injected intra-peritoneally into naïve recipient rats (10^7 per rat), and EAE was scored. The BP10 line at later stimulations was used, when its pathogenic potential is reduced, allowing to detect both suppression and enhancement of disease. […] To rule out antigen presenting cells (APC) as the target of the beta-lactam antibiotic, the encephalitogenic BP10 line was stimulated without APC using PMA (50 ng/ml) and Ionomycin (500 ng/ml) in the presence or absence of cefuroxime.
Additional beta-lactam antibiotics were tested for their effect on the adoptive transfer of EAE.
A control group was injected with the untreated line.

NOD mice = assay: Development of autoimmune diabetes in NOD mice; format: in vivo, mouse; conditions: at 5.7 months; s.c. at weekly intervals, ampicillin 1300 μg or ceftriaxone 675 μg per mouse; blood sugar above 300 mg/dl on 2 measurements; control 60%
Source text: Inbred female Lewis rats and NOD (non-obese diabetic) mice were supplied by the animal breeding center of the Weizmann Institute of Science, Israel, under the supervision of Harlan Laboratories and were used at 2-3 months of age. Experiments were approved by the Institutional Animal Care and Use Committee. Human peripheral blood lymphocytes from healthy donors were obtained from the blood bank of Sheba Medical Center, Tel Hashomer, Israel.
NOD mice spontaneously develop diabetes mellitus similar to type I diabetes in humans. […] The mice were followed for the development of diabetes, marked by blood sugar above 300 mg/dl on 2 measurements.

[2] = molecular target: T1, 67 kDa protein of human CD4 and CD8 T cells (identified as albumin) (Homo sapiens, UniProt P02768); assay: Radioactive penicillin binding assay; conditions: 10 and 20 μCi tritium-labeled, 3 days with PMA and Ionomycin; SDS-PAGE autoradiography
T1 construct: endogenous in cells; host or cells: primary human peripheral-blood T cells (CD3+, CD4+ or CD8+) from healthy donors
Source text: Tritium labeled benzylpenicillin was obtained from Amersham (Buckinghamshire, UK; 250 μCi, 1 mCi/ml). Human CD4 or CD8 T cells were stimulated in 24 well plates, 5×10^6 cells per ml, with PMA and Ionomycin for 72 hr in the presence of 10 or 20 μCi of labeled penicillin. Following stimulation, the cells were collected, lysed and separated by SDS PAGE. The gels were fixed, treated with 1M sodium salicylate, and dried. The dried gels were exposed to x-ray film (BioMax MS film) for 14 days, with intensifying screen (BioMax TranScreen, Eastman Kodak Co., New Haven Conn., USA), and were developed.
To test whether beta-lactam antibiotics might affect T-cell behavior likewise by covalently binding a key T-cell protein, purified CD4 or CD8 human T cells were incubated with 10 and 20 μCi of tritium-labeled lactam benzylpenicillin (Amersham, Buckinghamshire, UK) for 3 days during stimulation with PMA and Ionomycin. The stimulated T cells were collected, washed, lysed and their proteins were subjected to SDS-PAGE separation. Dried gels were exposed in intensifying screens to Xray film for 2 weeks at −80° C. […] The intensity of the band was stronger at the 20 μCi concentration of penicillin.

[3] = molecular target: T2, albumin of human CD3 T cells (Homo sapiens, UniProt P02768); assay: Western blot with Pen 9 antibody of antibiotic-treated human T cells; format: cell-based; conditions: T cells activated by mitogen in presence of antibiotic
T2 construct: endogenous in cells; host or cells: primary human peripheral-blood T cells (CD3+, CD4+ or CD8+) from healthy donors
Description: Rat tissues were ground with a tissue grinder in lysis buffer. The homogenate was centrifuged 14000 g for 15 min in 4° C. and the supernatant was used for western blotting. The protein concentration was determined using the BIO-RAD DC™ protein assay (Bio-Rad laboratories, Hercules, Calif.). Following electrophoresis in SDS gel in a mini-gel apparatus (Bio-Rad), the gels were electro-transferred to nitrocellulose membranes (Schleicher and schuell, Dassel, Germany). The nitrocellulose membranes were washed with distilled water for 5 min, and then blocked for 60 min. using a blocking solution composed of 2% bovine serum albumin (Fraction V, Sigma, St. Louis Mo.), 2.5% milk powder (Bio-Rad), Tris (Sigma) pH 7.5 10 mM, NaCl 150 mM and 0.02% thimerosal (Sigma). After 3×10 min. washes in PBS/TWEEN® 20 (PBS/T; 0.02%, Sigma), primary antibodies (1/1000) were incubated with the membranes in PBS/TWEEN® for 60 min. Following another series of washes in PBS/T (3×10 min), the membranes were incubated with a secondary antibody (Peroxidase conjugated anti rabbit or anti mouse, IgG Jackson ImmunoResearch, West Grove, Calif.) at a 1/2500 dilution in 2% milk in PBS solution for 60 min. After another 3×10 min washes, the membranes were incubated with the ECL reagent (for 60 seconds) and exposed to X-ray film.

albumin = molecular target: T3, albumin (Rattus norvegicus, UniProt P02770); assay: Pen 9 western blot of rat tissue lysates after intraperitoneal penicillin G; format: in vivo; conditions: Lewis rats, 50 mg/rat intraperitoneally, 2 hours later
T3 construct: Rat tissues were ground with a tissue grinder in lysis buffer; from tissue; host or cells: various tissue lysates and serum of Lewis rats, 2 hours after i.p. penicillin G
Description: Rat tissues were ground with a tissue grinder in lysis buffer. The homogenate was centrifuged 14000 g for 15 min in 4° C. and the supernatant was used for western blotting. The protein concentration was determined using the BIO-RAD DC™ protein assay (Bio-Rad laboratories, Hercules, Calif.). Following electrophoresis in SDS gel in a mini-gel apparatus (Bio-Rad), the gels were electro-transferred to nitrocellulose membranes (Schleicher and schuell, Dassel, Germany). The nitrocellulose membranes were washed with distilled water for 5 min, and then blocked for 60 min. using a blocking solution composed of 2% bovine serum albumin (Fraction V, Sigma, St. Louis Mo.), 2.5% milk powder (Bio-Rad), Tris (Sigma) pH 7.5 10 mM, NaCl 150 mM and 0.02% thimerosal (Sigma). After 3×10 min. washes in PBS/TWEEN® 20 (PBS/T; 0.02%, Sigma), primary antibodies (1/1000) were incubated with the membranes in PBS/TWEEN® for 60 min. Following another series of washes in PBS/T (3×10 min), the membranes were incubated with a secondary antibody (Peroxidase conjugated anti rabbit or anti mouse, IgG Jackson ImmunoResearch, West Grove, Calif.) at a 1/2500 dilution in 2% milk in PBS solution for 60 min. After another 3×10 min washes, the membranes were incubated with the ECL reagent (for 60 seconds) and exposed to X-ray film. […]

[4] = free penicillin; cited from earlier work

T2 sequence (P02768 25-609): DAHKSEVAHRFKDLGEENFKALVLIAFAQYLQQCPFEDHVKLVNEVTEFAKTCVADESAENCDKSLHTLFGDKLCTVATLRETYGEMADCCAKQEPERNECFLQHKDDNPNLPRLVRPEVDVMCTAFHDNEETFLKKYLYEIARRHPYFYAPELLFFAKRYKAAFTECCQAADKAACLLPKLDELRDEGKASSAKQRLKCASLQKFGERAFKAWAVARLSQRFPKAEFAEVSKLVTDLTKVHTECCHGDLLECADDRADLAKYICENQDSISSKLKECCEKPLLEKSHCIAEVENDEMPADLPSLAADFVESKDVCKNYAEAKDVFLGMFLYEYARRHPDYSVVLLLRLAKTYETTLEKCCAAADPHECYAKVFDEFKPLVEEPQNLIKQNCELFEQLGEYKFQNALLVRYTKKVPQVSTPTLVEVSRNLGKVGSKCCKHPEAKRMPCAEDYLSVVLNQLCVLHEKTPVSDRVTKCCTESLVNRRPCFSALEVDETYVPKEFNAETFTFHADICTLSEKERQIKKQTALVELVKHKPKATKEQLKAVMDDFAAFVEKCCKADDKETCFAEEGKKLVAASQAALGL
T1 sequence (P02768 25-609): as above

## CO/N=C(\C(=O)N[C@@H]1C(=O)N2C(C(=O)O)=C(CSc3nc(=O)c(=O)[nH]n3C)CS[C@H]12)c1csc(N)n1 [ceftriaxone]
[1]; BP10 line stimulated 3 days with MBP in presence of 50 μg/ml antibiotic, 10^7 cells per rat
  severity of adoptive EAE in recipient rats: enhanced EAE severity
NOD mice
  incidence of diabetes: 60%

## CC1(C)S[C@@H]2[C@H](NC(=O)Cc3ccccc3)C(=O)N2[C@H]1C(=O)O [penicillin, benzylpenicillin]
[2]
  radioactive penicillin-protein band in T-cell lysates: single major penicillin-protein radioactive band was detected at 67 kD
[3]
  Pen 9 reactivity with lysates of antibiotic-treated T cells: reacted specifically to a major protein of the penicillin-treated T cells
albumin
  67 kD band representing penicilloylated albumin in tissue lysates: appears in all tissues examined and is most abundant in serum
[4]
  half-life: 42 min

B1: Penicillin-modified rat albumin: rat albumin modified with penicillin (conjugate, UniProt P02770 25-608, looked up)
Albumin: EAHKSEIAHRFKDLGEQHFKGLVLIAFSQYLQKCPYEEHIKLVQEVTDFAKTCVADENAENCDKSIHTLFGDKLCAIPKLRDNYGELADCCAKQEPERNECFLQHKDDNPNLPPFQRPEAEAMCTSFQENPTSFLGHYLHEVARRHPYFYAPELLYYAEKYNEVLTQCCTESDKAACLTPKLDAVKEKALVAAVRQRMKCSSMQRFGERAFKAWAVARMSQRFPNAEFAEITKLATDVTKINKECCHGDLLECADDRAELAKYMCENQATISSKLQACCDKPVLQKSQCLAEIEHDNIPADLPSIAADFVEDKEVCKNYAEAKDVFLGTFLYEYSRRHPDYSVSLLLRLAKKYEATLEKCCAEGDPPACYGTVLAEFQPLVEEPKNLVKTNCELYEKLGEYGFQNAVLVRYTQKAPQVSTPTLVEAARNLGRVGTKCCTLPEAQRLPCVEDYLSAILNRLCVLHEKTPVSEKVTKCCSGSLVERRPCFSALTVDETYVPKEFKAETFTFHSDICTLPDKEKQIKKQTALAELVKHKPKATEDQLKTVMGDFAQFVDKCCKAADKDNCFATEGPNLVARSKEALA
modifications: penicillin-modified
[1]; BP10 line stimulated 3 days with 5 mg/ml in stimulation medium, control untreated line
  severity of adoptive EAE mediated by the BP10 line: could also enhance the encephalogenicity of the BP10 line
